Data reported in paper PMC11684029, “Discovery of VU6024578/BI02982816: An mGlu1 Positive Allosteric Modulator with Efficacy in Preclinical Antipsychotic and Cognition Models” (Journal of Medicinal Chemistry, 2024).
Entries after “also recorded” stand apart in the source; their conditions may differ. Read-outs that look alike come from different tables or passages of the source.

Assays:
[1] = target: dog mGlu1 (Canis lupus familiaris, UniProt A0A8I3NTE8); test: mGlu1 PAM assay, dog receptor; format: cell-based; details: read-out: dog mGlu1 Glumax
[2] = plasma protein binding; format: in vitro ADME
Procedure: The protein binding of each compound was determined in plasma via equilibrium dialysis employing RED Plates (ThermoFisher Scientific, Rochester, NY). Plasma was added to the 96 well plate containing test compound and mixed thoroughly for a final concentration of 5 μM. Subsequently, an aliquot of the plasma-compound mixture was transferred to the cis chamber (red) of the RED plate, with an phosphate buffer (25 mM, pH 7.4) in the trans chamber. The RED plate was sealed and incubated for 4 h at 37 °C with shaking. At completion, aliquots from each chamber were diluted 1:1 with either plasma (cis) or buffer (trans) and transferred to a new 96 well plate, at which time ice-cold acetonitrile containing internal standard (50 ng/mL carbamazepine) (2 volumes) was added to extract the matrices. The plate was centrifuged (3000 rcf, 10 min) and supernatants transferred and diluted 1:1 (supernatant: water) into a new 96 well plate, which was then sealed in preparation for LC/MS/MS analysis. Each compound was assayed in triplicate within the same 96-well plate. Fraction unbound was determined using the following equation [drawing 1]

[3] = brain homogenate binding; format: in vitro ADME, rat; details: fraction unbound
[4] = glutathione trapping of reactive intermediates; format: in vitro ADME
Procedure: Across species, 19d had acceptable fraction unbound in both plasma (fu (plasma): 0.03 (human), 0.041 (rat), 0.025 (cyno), 0.039 (dog) and 0.056 (mouse)) and brain (fu (brain): 0.034 (rat) and 0.081 (mouse)).
In Vitro Glutathione Conjugates of 19d
Figure S1. 19d was incubated in rat and human liver microsomes for 1 hr (with and without
NADPH) with 20 µM glutathione.
conjugates, most likely due to reactive intermediate formation from the 2-furanyl southern […]

[5] = rat IV plasma:brain level (PBL) PK; format: in vivo
[6] = test system: rats; test: rotarod; format: in vivo; details: rat, doses up to 10 mg/kg
Procedure: In order to enable our target validation work, we first profiled PAM 19d in a rat locomotor battery to ensure that pharmacodynamic efficacy was not mistaken for gross effects on locomotion.[20] […] PK was performed in parallel to establish a PK/PD relationship.[24]
On the first day, the animals were placed on the rotarod apparatus which was rotating at a speed of 20 rpm. If the rats fall of the bar, the animals were placed back on the apparatus for a total of 2 min. On the day of testing, adult male rats were pretreated with VU6024578 (1–10 mg/kg) 65 min before being placed on the rotarod apparatus. Testing consisted of accelerating rotarod from 4 to 40 rpm over 5 min. The time and final speed when the rats fall off of the apparatus was recorded.

[7] = satellite PK for rat AHL; format: in vivo; details: 2.5-h end of study; for concentration at 2.5 h: brain, oral, read-out: free brain concentration
Procedure: Here, administration of 0.75 mg/kg IP of amphetamine induced a robust hyperlocomotive state in rats (>1200 beam breaks), which was dose-dependently reversed by oral administration of 19d. […] Considering the longer time point for exposure and the results, mGlu1 has sufficient target coverage and PK/PD is established for this paradigm.[24]

[8] = IV dog PK; format: in vivo; details: 0.5 mg/kg IV; for C0: plasma
Procedure: Deeper profiling began with IV dog PK (0.5 mg/kg, n = 3 male beagles). […] Was this a mechanism-based toxicity in dog? Could there be dog-specific pharmacology of mGlu1 activation? Were these AEs derived from the 19d chemotype? Could a mGlu1/mGlu5 heterodimer be responsible for the observed AEs? […] In an attempt to address the chemotype question, we evaluated PAM 4 (VU6004909),[8] an early generation rodent in vivo tool compound, for the first time in dog PK. […] of the study with 19d, PAM 4 produced no AEs in dog. […] Therefore, more molecular pharmacology and PK studies as well as additional chemically distinct mGlu1 PAM chemotypes are required to understand the AEs elicited by an mGlu1 PAM in dogs, an otherwise very promising target for the treatment of schizophrenia.

[9] = target: T1, Adenosine A1 (Homo sapiens, UniProt P30542); test: Eurofins radioligand binding panel; details: antagonist radioligand
T1 construct: Eurofins
Source text: Table S1. Eurofins Lead Profiling Screen Data
This is a radioligand binding panel of 80 targets including GPCRs, ion channels, transporters and nuclear hormones. Biochemical assay results are presented as the percent inhibition of specific […]
Results showing an inhibition or stimulation higher than 50% are considered to represent significant effect and are highlighted […]
Target / Protein Species % Inhibition at 10

Sequence of dog mGlu1 (A0A8I3NTE8 30-1195): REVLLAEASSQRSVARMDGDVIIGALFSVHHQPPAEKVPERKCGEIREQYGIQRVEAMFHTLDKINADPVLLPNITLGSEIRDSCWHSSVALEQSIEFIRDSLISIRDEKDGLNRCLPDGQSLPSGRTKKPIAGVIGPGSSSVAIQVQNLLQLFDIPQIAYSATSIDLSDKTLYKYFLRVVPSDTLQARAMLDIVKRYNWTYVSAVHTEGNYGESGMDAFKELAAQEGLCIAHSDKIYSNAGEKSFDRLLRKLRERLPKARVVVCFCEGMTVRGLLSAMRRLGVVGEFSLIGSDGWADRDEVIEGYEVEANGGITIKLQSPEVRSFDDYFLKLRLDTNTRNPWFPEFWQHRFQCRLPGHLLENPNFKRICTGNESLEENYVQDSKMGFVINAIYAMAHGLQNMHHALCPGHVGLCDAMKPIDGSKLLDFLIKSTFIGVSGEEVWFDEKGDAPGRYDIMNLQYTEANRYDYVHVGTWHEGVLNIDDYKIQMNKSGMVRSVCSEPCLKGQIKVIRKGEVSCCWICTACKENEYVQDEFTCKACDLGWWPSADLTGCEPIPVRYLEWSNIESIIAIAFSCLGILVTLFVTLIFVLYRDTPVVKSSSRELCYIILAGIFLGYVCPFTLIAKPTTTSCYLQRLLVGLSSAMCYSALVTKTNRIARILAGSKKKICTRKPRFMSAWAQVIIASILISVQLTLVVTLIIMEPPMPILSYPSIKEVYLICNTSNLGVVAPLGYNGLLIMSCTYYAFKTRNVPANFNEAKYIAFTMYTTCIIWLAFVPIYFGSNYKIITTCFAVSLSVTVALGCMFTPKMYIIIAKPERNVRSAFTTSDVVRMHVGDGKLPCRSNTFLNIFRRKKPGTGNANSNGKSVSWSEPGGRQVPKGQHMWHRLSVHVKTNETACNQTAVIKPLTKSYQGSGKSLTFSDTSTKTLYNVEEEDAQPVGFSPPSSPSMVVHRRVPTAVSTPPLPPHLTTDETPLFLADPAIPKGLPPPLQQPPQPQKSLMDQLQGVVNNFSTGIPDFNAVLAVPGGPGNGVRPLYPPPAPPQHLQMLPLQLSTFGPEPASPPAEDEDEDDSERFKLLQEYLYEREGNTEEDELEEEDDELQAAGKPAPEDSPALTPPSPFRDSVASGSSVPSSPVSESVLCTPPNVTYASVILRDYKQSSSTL
T1 sequence (P30542 whole entry): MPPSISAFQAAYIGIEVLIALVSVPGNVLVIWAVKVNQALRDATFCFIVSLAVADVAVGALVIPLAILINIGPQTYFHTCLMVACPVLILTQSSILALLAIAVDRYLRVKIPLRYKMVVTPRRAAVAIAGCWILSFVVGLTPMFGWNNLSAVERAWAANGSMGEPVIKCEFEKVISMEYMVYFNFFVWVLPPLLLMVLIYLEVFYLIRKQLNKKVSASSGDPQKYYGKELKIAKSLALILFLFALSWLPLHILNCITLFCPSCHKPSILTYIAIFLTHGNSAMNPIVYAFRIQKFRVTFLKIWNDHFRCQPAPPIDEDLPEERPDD

Which Emax [1] does the source give for `Cn1nc(-c2ccnn2C)cc1CNC(=O)c1cc(-c2ccco2)ccc1Cl` [Compound 19d, 2-Chloro-N-((1,2′-dimethyl-1H,2’H-[3,3′-bipyrazol]-5-yl)methyl)-5-(furan-2-yl)benzamide] here?
The Emax was 129%.

And the fraction unbound at 4 h, 5 μM ([2]; cynomolgus monkey, pH 7.4, read-out: fu (plasma), cyno)?
The fraction unbound at 4 h, 5 μM was 0.025.

And the fraction unbound at 4 h, 5 μM ([2]; dog, pH 7.4, read-out: fu (plasma), dog)?
Its fraction unbound at 4 h, 5 μM is 0.039.

What about the fraction unbound at 4 h, 5 μM ([2]; mouse, pH 7.4, read-out: fu (plasma), mouse) of the same compound?
Its fraction unbound at 4 h, 5 μM is 0.056.

What about the rat fubrain [3] of the same compound?
The rat fubrain was 0.034.

And the glutathione conjugates ([4]; human liver microsomes with glutathione)?
Its glutathione conjugates is “multiple glutathione; also recorded: a number of minor glutathione conjugates with four involving the furanyl ring”.

What about the glutathione conjugates ([4]; rat liver microsomes with glutathione) of the same compound?
The glutathione conjugates was “multiple glutathione; also recorded: a number of minor glutathione conjugates with four involving the furanyl ring”.

And the Kp at 15 min ([5]; Sprague-Dawley, 0.25 mg/kg/compound, rat IV PBL, brain:plasma)?
The Kp at 15 min was 0.99.

And the Kp uu at 15 min ([5]; Sprague-Dawley, brain, 0.25 mg/kg/compound, rat IV PBL)?
The Kp uu at 15 min was 0.82.

What about the half-life ([5]; plasma, iv, 1 mg/kg, rat PK PBL experiment) of the same compound?
The half-life was 3.6 h.

What about the clearance ([5]; plasma, iv, 1 mg/kg, rat PK PBL experiment, read-out: CLp) of the same compound?
The clearance was 8.3 mL/min/kg.

What about the MRT ([5]; plasma, iv, 1 mg/kg, rat PK PBL experiment, read-out: MRT) of the same compound?
Its MRT is 3.5 h.

And the Vd ([5]; plasma, iv, 1 mg/kg, rat PK PBL experiment, read-out: Vss)?
The Vd was 1.78 L/kg.

And the rotarod [6]?
Its rotarod is “lack of effect”.

What about the “free brain concentration over in vitro EC50” value ([7]; 3 mg/kg) of the same compound?
Its value is about 0.6 fold.

And the “free brain concentration over in vitro EC50” value ([7]; 10 mg/kg)?
The value was about 1.2 fold.

What about the concentration at 2.5 h ([7]; 3 mg/kg) of the same compound?
The concentration at 2.5 h was 32 nM.

What about the concentration at 2.5 h ([7]; 10 mg/kg) of the same compound?
Its concentration at 2.5 h is 67 nM.

And the CLp [8]?
The CLp was 5.4 mL/min/kg.

What about the Vss [8] of the same compound?
The Vss was 0.92 L/kg.

What about the t1/2 [8] of the same compound?
Its t1/2 is 3.6 h.

And the C0 ([8]; read-out: C0 exposure, total)?
Its C0 is 2050 nM.

What about the C0 ([8]; male, beagle, iv, 0.5 mg/kg, read-out: C0 exposure, unbound) of the same compound?
The C0 was 80 nM.

And the inhibition at 10 µM [9]?
Its inhibition at 10 µM is 8%.
